According to US11319344B2, “Non-membrane disruptive P53 activating stapled peptides” (AGENCY FOR SCIENCE, TECHNOLOGY AND RESEARCH, priority 2015, dated 2022):
Where two headings read alike, the source gives them in different places. *1 amine or outer side, *2 acyl side, *3 side chain or, on linkers, in order; H or OH if unused. Where a SMILES comes first, the peptide text is derived from it. Bridges are numbered along the chain shown (N, C = ends). [ ]: non-standard residue; d: D form. ξ: configuration not given here. ξαMeNle(6-ylidene) = CC(CCCC=[*:3])(N[*:1])C(=O)[*:2]; X1 = CC(CCCCCCC=[*:3])(N[*:1])C(=O)[*:2]; R8 = C=CCCCCCC[C@@](C)(N)C(=O)O; R5 = C=CCCC[C@@](C)(N)C(=O)O; S5 = C=CCCC[C@](C)(N)C(=O)O; Ahx = NCCCCCC(=O)O

Columns and labels:
[1] = molecular target: N-terminal domain of Mdm2 (1-125) (Homo sapiens, UniProt Q00987); assay: Competitive fluorescence anisotropy titration (apparent Kd)
Procedure: In this assay, a N-terminally FAM labelled peptide of the sequence [sequence]
The cells expressing the Mdm2 GST fusion construct were grown in LB medium at 37° C. to an OD600 of ˜0.6 and induction was carried out with 1 mM isopropyl β-D-1-thiogalactopyranoside (IPTG) at room temperature. Cells were harvested by centrifugation and the cell pellets were resuspended in 50 mM Tris pH 8.0, 10% sucrose and then sonicated. The sonicated sample was centrifuged for 60 minutes at 17,000 g at 4° C. […] The column was then further washed by 6 volumes of wash buffer. Mdm2 were then purified from the column by cleavage with PreScission protease. 10 units of PreScission protease, in one column volume of PBS with 1 mM DTT buffer, were injected onto the column. The cleavage reaction was allowed to proceed overnight at 4° C. The cleaved protein was then eluted of the column with wash buffer. Protein fractions were analysed with SDS-PAGE and concentrated using a Centricon (3.5 kDa molecular weight cut-off (MWCO)) concentrator. The Mdm2 protein sample was then dialyzed into a buffer solution containing 20 mM Bis-Tris, pH 6.5, 0.05M NaCl with 1 mM DTT and loaded onto a monoS column pre-equilibrated in buffer A (20 mM Bis-Tris, pH 6.5, 1 mM DTT). The column was then washed in 6 column volumes of buffer A and bound protein was eluted with a linear gradient of 1M NaCl over 25 column volumes. Protein fractions were analysed with sodium dodecyl sulfate-polyacrylamide gel electrophoresis (SDS-PAGE) and concentrated using a Centricon (3.5 kDa molecular weight cut-off (MWCO)) concentrator.
Apparent dissociation constant (Kd) values were determined for a variety of molecules via competitive fluorescence anisotropy experiments. […] The competing molecules were then titrated against the complex of the FAM labelled peptide and protein. Apparent dissociation constant (Kd) values were determined by fitting the experimental data to the equations shown below:
[L]st and [L]t denote labelled ligand and total unlabelled ligand input concentrations, respectively. Kd2 is the dissociation constant of the interaction between the unlabelled ligand and the protein. In all competitive types of experiments, it is assumed that [P]t>[L]st, otherwise considerable amounts of free labelled ligand would always be present and would interfere with measurements. […] The FAM-labelled peptide was dissolved in dimethyl sulfoxide (DMSO) at 1 mM and diluted into experimental buffer. Readings were carried out with a Envision Multilabel Reader. […] All titrations were carried out in triplicate. Curve-fitting was carried out using Prism 4.0 (GraphPad). […]

[2] = tested on: p53 transcriptional activity in T22 cells; assay: T22 p53 β-galactosidase based reporter assay; format: cell-based, murine; conditions: for IC50: T22 p53 reporter assay, 18 h; for ability to induce p53 activity in T22 reporter assay: with and without serum
Procedure: The YS-01/04 peptides were screened in a murine T22-derived p53 reporter assay, either with or without fetal calf serum, to assess their ability to induce p53 transcriptional activity in intact cells (Table 1 and FIG. 3).
(§1) T22 cells, which were stably transfected with a p53 responsive β-galactosidase reporter, were seeded into 96-well plate at a cell density of 8000 cells per well. Cells were also maintained in Dulbecco's Minimal Eagle Medium (DMEM) with 10% fetal bovine serum (FBS) and penicillin/streptomycin. […] Measurements were carried out using a Safire II multiplate reader. Experiments were carried out independently twice.

[3] = Circular dichroism spectroscopy (helicity in solution); format: physicochemical; conditions: peptide unbound in solution
[4] = tested on: p53 transcriptional activity in ARN8 cells; assay: ARN8 β-galactosidase based p53 reporter assay; format: cell-based, Human; conditions: 18 h; for p53 activation (β-galactosidase activity) in ARN8 cells: serum free
Procedure: ARN8 cells contain the same β-galactosidase gene under the control of a p53 promoter that is stably transfected into T22 cells. […] The YS-07 and YS-09 titrations were again repeated and the lactate dehydrogenase leakage from ARN8 cells measured instead (FIGS. 8c and 8d).
as §1, with “ARN8” for “T22”

[5] = absence of serum, read-out: T22 IC50 (0% μM)
[6] = presence of 10% fetal calf serum, read-out: T22 Ic50 (10% μM)

Chain of N-terminal domain of Mdm2 (1-125) (Q00987 1-125): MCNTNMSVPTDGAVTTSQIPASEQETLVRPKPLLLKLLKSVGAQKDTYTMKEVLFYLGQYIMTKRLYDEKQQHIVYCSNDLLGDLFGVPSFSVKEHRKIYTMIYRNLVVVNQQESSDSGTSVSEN

Row | Kd stronger in comparison to sMTIDE-02 ([1]; ratio to sMTIDE-02 Kd) | Kd weaker than the i,i+4 analogue peptides (YS-01 and YS-02) ([1]; ratio to YS-01/YS-02 Kd) | IC50 [2, 5] | IC50 [2, 6] | Compound | ability to induce p53 activity in T22 reporter assay [2] | helicity in solution (CD spectra) [3] | p53 activation (β-galactosidase activity) in ARN8 cells [4] | p53 activation in ARN8 cells ([4]; 10% serum)
1 | approximately 3 fold | – | – | – | CC(=O)N[C@H](C(=O)N[C@@H](CO)C(=O)N[C@@H](Cc1ccccc1)C(=O)N[C@]1(C)CCCC=CCCC[C@](C)(C(=O)N[C@@H](CC(C)C)C(=O)N[C@@H](CC(C)C)C(=O)N2CCC[C@H]2C(=O)N[C@@H](CCC(=O)O)C(=O)N[C@@H](CC(N)=O)C(=O)N[C@@H](Cc2ccccc2)C(N)=O)NC(=O)[C@H](Cc2c[nH]c3ccccc23)NC(=O)[C@H](Cc2ccc(O)cc2)NC(=O)[C@H](CCC(=O)O)NC1=O)[C@@H](C)O [YS-01, Ac-^17TSFX5EYWX5LLPENF^30-NH2] (Ac-TSF[R5]EYW[R5]LLPENF-NH2; staple 4-8) | – | – | – | –
2 | – | approximately 2 fold | 9.73 µM | 78.3 µM | CC(=O)N[C@H](C(=O)N[C@@H](CO)C(=O)N[C@@H](Cc1ccccc1)C(=O)NC1(C)CCCCCCC=CCCCC(C)(C(=O)N[C@@H](CCC(=O)O)C(=O)N[C@@H](CC(N)=O)C(=O)N[C@@H](Cc2ccc(O)cc2)C(N)=O)NC(=O)[C@H](CC(C)C)NC(=O)[C@H](CC(C)C)NC(=O)[C@H](C)NC(=O)[C@H](Cc2c[nH]c3ccccc23)NC(=O)[C@H](Cc2ccc(O)cc2)NC(=O)[C@H](CCC(=O)O)NC1=O)[C@@H](C)O (stereo partly drawn) [YS-04, Ac-^17TSFX8EYWALLS5ENY^30-NH2] | greater potency in the T22 assay than YS-01 and YS-02 | significantly more helical in character in solution than YS-01 and YS-02 | – | –
3 | – | – | – | – | CC(=O)N[C@H](C(=O)N[C@@H](CO)C(=O)N[C@@H](Cc1ccccc1)C(=O)N[C@]1(C)CCCC=CCCC[C@](C)(C(=O)N[C@@H](CC(C)C)C(=O)N[C@@H](CC(C)C)C(=O)N[C@@H](CO)C(=O)N[C@@H](CCC(=O)O)C(=O)N[C@@H](CC(N)=O)C(=O)N[C@@H](Cc2ccc(O)cc2)C(N)=O)NC(=O)[C@H](Cc2c[nH]c3ccccc23)NC(=O)[C@H](Cc2ccc(O)cc2)NC(=O)[C@H](CCC(=O)O)NC1=O)[C@@H](C)O [YS-06, Ac-^17TSFX5EYWX5LLSENY^30-NH2] (Ac-TSF[R5]EYW[R5]LLSENY-NH2; staple 4-8) | improvement of both peptides to activate p53 | significantly more helical structure | – | –
4 | – | – | ~0.78 µM | 9.95 µM | CC(=O)N[C@@H](CCCCN)C(=O)N[C@@H](CCCCN)C(=O)NCCCCCC(=O)N[C@H](C(=O)N[C@@H](CO)C(=O)N[C@@H](Cc1ccccc1)C(=O)N[C@]1(C)CCCCCCC=CCCC[C@@](C)(C(=O)N[C@@H](CCC(=O)O)C(=O)N[C@@H](CC(N)=O)C(=O)N[C@@H](Cc2ccccc2)C(N)=O)NC(=O)[C@H](CC(C)C)NC(=O)[C@H](CC(C)C)NC(=O)[C@H](C)NC(=O)[C@H](Cc2c[nH]c3ccccc23)NC(=O)[C@H](Cc2ccc(O)cc2)NC(=O)[C@H](CCC(=O)O)NC1=O)[C@@H](C)O [YS-07, Ac-KK-Ahx-^17TSFX8EYWALLS5ENF^30-NH2] (Ac-KK[Ahx]TSF[R8]EYWALL[S5]ENF-NH2; staple 7-14) | most potent | – | efficiently induced β-galactosidase activity | –
5 | – | – | 7.29 µM | 23.4 µM | CC(=O)N[C@@H](CCCCN)C(=O)N[C@@H](CCCCN)C(=O)NCCCCCC(=O)N[C@H](C(=O)N[C@@H](CO)C(=O)N[C@@H](Cc1ccccc1)C(=O)N[C@]1(C)CCCCCCC=CCCC[C@@](C)(C(=O)N[C@@H](CCC(=O)O)C(=O)N[C@@H](CC(N)=O)C(=O)N[C@@H](Cc2ccc(O)cc2)C(N)=O)NC(=O)[C@H](CC(C)C)NC(=O)[C@H](CC(C)C)NC(=O)[C@H](C)NC(=O)[C@H](Cc2c[nH]c3ccccc23)NC(=O)[C@H](Cc2ccc(O)cc2)NC(=O)[C@H](CCC(=O)O)NC1=O)[C@@H](C)O [YS-08, Ac-KK-Ahx-^17TSFX8EYWALLS5ENY^30-NH2] (Ac-KK[Ahx]TSF[R8]EYWALL[S5]ENY-NH2; staple 7-14) | least potent amongst the four peptides | – | – | –
6 | – | – | 1.98 µM | 11.6 µM | CC(=O)N[C@@H](CCCNC(=N)N)C(=O)N[C@@H](CCCNC(=N)N)C(=O)N[C@@H](CCCNC(=N)N)C(=O)NCCCCCC(=O)N[C@H](C(=O)N[C@@H](CO)C(=O)N[C@@H](Cc1ccccc1)C(=O)NC1(C)CCCCCCC=CCCCC(C)(C(=O)N[C@@H](CCC(=O)O)C(=O)N[C@@H](CC(N)=O)C(=O)N[C@@H](Cc2ccccc2)C(N)=O)NC(=O)[C@H](CC(C)C)NC(=O)[C@H](CC(C)C)NC(=O)[C@H](C)NC(=O)[C@H](Cc2c[nH]c3ccccc23)NC(=O)[C@H](Cc2ccc(O)cc2)NC(=O)[C@H](CCC(=O)O)NC1=O)[C@@H](C)O (stereo partly drawn) [YS-09, Ac-RRR-Ahx-^17TSFX8EYWALLS5ENF^30-NH2] (Ac-RRR[Ahx]TSF[X1]EYWALL[ξαMeNle(6-ylidene)]ENF-NH2; staple 8-15) | – | – | sharp burst of p53 transcriptional activity at 3.125 μM followed by a sharp decline at higher concentrations | slightly more activity than YS-07
7 | – | – | 1.69 µM | 17.9 µM | CC(=O)N[C@@H](CCCNC(=N)N)C(=O)N[C@@H](CCCNC(=N)N)C(=O)N[C@@H](CCCNC(=N)N)C(=O)NCCCCCC(=O)N[C@H](C(=O)N[C@@H](CO)C(=O)N[C@@H](Cc1ccccc1)C(=O)NC1(C)CCCCCCC=CCCCC(C)(C(=O)N[C@@H](CCC(=O)O)C(=O)N[C@@H](CC(N)=O)C(=O)N[C@@H](Cc2ccc(O)cc2)C(N)=O)NC(=O)[C@H](CC(C)C)NC(=O)[C@H](CC(C)C)NC(=O)[C@H](C)NC(=O)[C@H](Cc2c[nH]c3ccccc23)NC(=O)[C@H](Cc2ccc(O)cc2)NC(=O)[C@H](CCC(=O)O)NC1=O)[C@@H](C)O (stereo partly drawn) [YS-10, Ac-RRR-Ahx-^17TSFX8EYWALLS5ENY^30-NH2] (Ac-RRR[Ahx]TSF[X1]EYWALL[ξαMeNle(6-ylidene)]ENY-NH2; staple 8-15) | – | – | – | –
